Values joined by “and” are separate entries in the source; they are usually repeats but may differ in a detail not shown here. Equal entries are not always repeated. Where two headings read alike, the source gives them in different places.
Assays:
WT CqsS = system: T1, WT CqsS; assay type: biochemical; conditions: for % Total Phosphorylation: CqsS WT
T1 construct: made in house; host or cells: E. coli C43 (DE3), pET21b; used as inverted membrane vesicles

CqsS F166L [1] = test: CqsS-dependent repression of qrr4-gfp, CqsS F166L (Fig 7C); assay type: cell-based, Vibrio cholerae
CqsS D618N = system: T2, CqsS D618N; test: CqsS D618N autophosphorylation in inverted membrane vesicles, 32P (Fig 7A); assay type: biochemical, Vibrio cholerae
T2 construct: made in house; host or cells: E. coli C43 (DE3), pET21b; used as inverted membrane vesicles

CqsS F162A = conditions: cited from earlier work
CqsS F166L [2] = conditions: cited from earlier work
[3] = system: QS-controlled luxCDABE operon; assay type: cell-based
[4] = ΔcqsA strain carrying luciferase

For `CCCCCCCCCC(=O)[C@@H](O)CC` [CAI-1, (S)-3-hydroxytridecan-4-one], the “% Total Phosphorylation” value (WT CqsS; Agonist 0.01 uM) was 102.493% and 101.697% and 101.306%, the “% Total Phosphorylation” value (WT CqsS; Agonist 0.1 uM) was 89.3767% and 102.409% and 93.98% and the “% Total Phosphorylation” value (WT CqsS; Agonist 0.5 uM) was 97.7615% and 100.304% and 88.309% and 81.2302% and 104.248% and 84.8997% and 78.17% and 83.6501%. The “% Total Phosphorylation” value (WT CqsS; Agonist 1 uM) was 89.5575% and 94.3418% and 94.4031% and 65.5157% and 64.6244%, the “% Total Phosphorylation” value (WT CqsS; Agonist 2.5 uM) was 63.4493% and 51.2966% and 78.14% and 56.8331% and 55.38% and the “% Total Phosphorylation” value (WT CqsS; Agonist 5 uM) was 72.2411% and 75.0851% and 56.1286% and 43.0708% and 37.87% and 49.5683%. The “% Total Phosphorylation” value (WT CqsS; Agonist 75 uM) was 26.5628% and 23.1908% and 29.77% and 22.6184%, the “% Total Phosphorylation” value (WT CqsS; Agonist 500 uM) was 13.8148% and 19.6183% and 26.8103% and 17.4064% and the “% Total Phosphorylation” value (WT CqsS; Agonist 1000 uM) was 22.144% and 17.5686%. For the same compound, the “inhibition of WT CqsS autophosphorylation” value (WT CqsS; saturating concentration (Fig 7B)) was 80%, the Qrr4-GFP/OD600 (CqsS F166L [1]; Treatment 1uM, CqsS mutant F166L) was 7778886 and 7289924 and 6896372 and the “response (Qrr4-GFP production)” value (CqsS F166L [1]; compounds at 1 μM) was “nearly impervious”. The “% Total Phosphorylation” value (CqsS D618N; agonist 0.32 uM) was 95.2512% and 79.8407% and 88.8244% and 85.3997% and 90.9887%, the “% Total Phosphorylation” value (CqsS D618N; agonist 0.64 uM) was 113.145% and 87.5268% and 103.834% and 64.446% and 85.0733% and 67.8245% and the “% Total Phosphorylation” value (CqsS D618N; agonist 1.28 uM) was 54.1919% and 72.6606% and 66.4662% and 63.8968% and 70.5235% and 55.5883%. The “% Total Phosphorylation” value (CqsS D618N; agonist 6.4 uM) was 11.8696% and 10.1556% and 13.3867% and 14.118% and 13.0644% and 14.5467%, the “% Total Phosphorylation” value (CqsS D618N; agonist 8 uM) was 8.344% and 11.4086% and 9.0715% and 10.6327% and 12.5012% and 11.7307% and the “% Total Phosphorylation” value (CqsS D618N; agonist 10 uM) was 12.437% and 6.165% and 12.0698% and 9.199% and 10.7397% and 9.533%. The “% Total Phosphorylation” value (CqsS D618N; agonist 15 uM) was 6.329% and 4.395% and 5.101% and 4.035% and 5.504% and 5.125%, the “response of CqsS variant to CAI-1” value (CqsS F162A) was “do not respond” and the “response of CqsS variant to CAI-1” value (CqsS F166L [2]) was “do not respond”. The Light production ([3]; 5nM CAI-1, OD600 0.005) was 81418.9 RLU and 88175.7 RLU, the Light production ([3]; 5nM CAI-1, OD600 0.0328) was 3079268 RLU and 3871951 RLU and the Light production ([3]; 5nM CAI-1, OD600 0.1753) was 587564 RLU. The Light production ([3]; 5nM CAI-1, OD600 0.3442) was 310866 RLU and 554910 RLU, the Light production ([3]; 5nM CAI-1, OD600 0.801) was 179775 RLU and 309613 RLU and the Light production ([3]; 5nM CAI-1, OD600 1.26) was 81746 RLU and 99206.4 RLU. For the same compound, the Light production ([3]; 5nM CAI-1, OD600 1.834) was 45747000 RLU and 48964010 RLU, the Light production ([3]; 5nM CAI-1, OD600 2.816) was 21306820 RLU and 22194600 RLU and the Light production ([3]; 5nM CAI-1, OD600 3.828) was 7523511 RLU and 7967607 RLU. For the same compound, the Light production ([3]; 10nM CAI-1, OD600 0.005) was 81418.9 RLU and 88175.7 RLU, the Light production ([3]; 10nM CAI-1, OD600 0.0309) was 3915858 RLU and 6084143 RLU and the Light production ([3]; 10nM CAI-1, OD600 0.3229) was 637968 RLU and 656550 RLU. The Light production ([3]; 10nM CAI-1, OD600 1.126) was 88099.5 RLU and 91474.2 RLU, the Light production ([3]; 10nM CAI-1, OD600 1.799) was 63924400 RLU and 62812670 RLU and the Light production ([3]; 10nM CAI-1, OD600 3.014) was 33012610 RLU and 33842070 RLU. For the same compound, the Light production ([3]; 10nM CAI-1, OD600 3.657) was 10363690 RLU and 11730930 RLU, the Light production ([3]; 50nM CAI-1, OD600 0.005) was 88175.7 RLU and 81418.9 RLU and the Light production ([3]; 50nM CAI-1, OD600 0.17) was 729000 RLU and 688000 RLU. For the same compound, the Light production ([3]; 50nM CAI-1, OD600 1.08) was 697000 RLU, the Light production ([3]; 50nM CAI-1, OD600 1.1) was 90900 RLU and 113000 RLU and the Light production ([3]; 50nM CAI-1, OD600 1.96) was 526000000 RLU and 531000000 RLU. The Light production ([3]; 50nM CAI-1, OD600 2.94) was 619000000 RLU and 599000000 RLU, the Light production ([3]; 50nM CAI-1, OD600 3.55) was 346000000 RLU and 321000000 RLU and the Light production ([3]; 100nM CAI-1, OD600 0.005) was 81418.9 RLU and 88175.7 RLU. The Light production ([3]; 100nM CAI-1, OD600 0.0305) was 3670000 RLU and 6790000 RLU, the Light production ([3]; 100nM CAI-1, OD600 0.1651) was 654000 RLU and 1050000 RLU and the Light production ([3]; 100nM CAI-1, OD600 0.3167) was 332000 RLU and 388000 RLU. For the same compound, the Light production ([3]; 100nM CAI-1, OD600 0.721) was 196000 RLU and 241000 RLU, the Light production ([3]; 100nM CAI-1, OD600 1.101) was 2280000 RLU and the Light production ([3]; 100nM CAI-1, OD600 2.679) was 3170000000 RLU. For the same compound, the Light production ([3]; 100nM CAI-1, OD600 3.677) was 1830000000 RLU and 1870000000 RLU, the Light production ([3]; 200nM CAI-1, OD600 0.005) was 81418.9 RLU and 88175.7 RLU and the Light production ([3]; 200nM CAI-1, OD600 0.0621) was 2130000 RLU and 2790000 RLU. The Light production ([3]; 200nM CAI-1, OD600 0.3026) was 568000 RLU and 806000 RLU, the Light production ([3]; 200nM CAI-1, OD600 0.5074) was 946000 RLU and 1180000 RLU and the Light production ([3]; 200nM CAI-1, OD600 0.5715) was 2260000 RLU and 2870000 RLU. The Light production ([3]; 200nM CAI-1, OD600 1.099) was 27300000 RLU and 26900000 RLU, the Light production ([3]; 200nM CAI-1, OD600 1.844) was 5910000000 RLU and the Light production ([3]; 200nM CAI-1, OD600 2.341) was 8370000000 RLU and 9230000000 RLU. For the same compound, the Light production ([3]; 200nM CAI-1, OD600 3.352) was 11800000000 RLU and 12600000000 RLU, the Light production ([3]; 200nM CAI-1, OD600 4.26) was 7350000000 RLU and 7860000000 RLU and the Light production ([3]; 400nM CAI-1, OD600 0.005) was 81418.9 RLU and 88175.7 RLU. For the same compound, the Light production ([3]; 400nM CAI-1, OD600 0.0614) was 1510000 RLU and 1840000 RLU, the Light production ([3]; 400nM CAI-1, OD600 0.3014) was 358000 RLU and 392000 RLU and the Light production ([3]; 400nM CAI-1, OD600 0.5621) was 3290000 RLU and 3630000 RLU. For the same compound, the Light production ([3]; 400nM CAI-1, OD600 1.037) was 74300000 RLU and 84000000 RLU, the Light production ([3]; 400nM CAI-1, OD600 1.532) was 10100000000 RLU and the Light production ([3]; 400nM CAI-1, OD600 2) was 31900000000 RLU and 31800000000 RLU. The Light production ([3]; 400nM CAI-1, OD600 3.04) was 22900000000 RLU and 24900000000 RLU, the Light production ([3]; 400nM CAI-1, OD600 3.35) was 22600000000 RLU and 24400000000 RLU and the “CAI-1 concentration at which induction of bioluminescence occurred” value [3, 4] was 50 nM. For the same compound, the “CAI-1 concentrations that failed to activate a QS response” value [3, 4] was “below 50 nM” and the “CAI-1 concentrations that fully induced QS” value [3, 4] was “above 200 nM”.

Source: PMC5467912, “Asymmetric regulation of quorum-sensing receptors drives autoinducer-specific gene expression programs in Vibrio cholerae” (PLoS Genetics, 2017)
